Consider one substance from US10111449B2, “Production procedure for a functional feed based in ellagic acid, cimenol and alliin from vegetable extracts to be used as pronutrient in animal feed” (BIOVET, S.A., priority 2015, dated 2018).

The subject of one assay is yeasts and fungi. Kind of assay: Kill of yeasts and fungi on contact with cimenol ring. It counts as cell-based. Particulars: appropriate concentrations, 10 minutes of contact. How it is done: On yeasts and fungi, appropriate concentrations of cimenol ring achieves to kill 100% of microorganisms in just 10 minutes of contact. Cell lysis and release of cellular contents into the medium are observed. At electronic microscope, yeasts and fungi are malformed and have fractures in cell walls, especially those found in the proliferation phase.

For assay [1], the system named is bacteria, yeast and fungal; gastrointestinal pathogens. As to the kind of experiment: In vitro tests and field trials of cimenol ring against gastrointestinal pathogens. An excerpt:
In vitro tests and field trials indicate that cimenol ring is effective against bacteria, yeast and fungal; gastrointestinal pathogens whose mechanisms of action are: […]

For cimenol [cimenol ring], the kill of microorganisms in the assay with yeasts and fungi was determined as 100%. The “effectiveness against bacteria, yeast and fungal gastrointestinal pathogens” value in assay [1] is “effective”.
